The source of these data is article PMC7933930, “Development of a small molecule that corrects misfolding and increases secretion of Z α1‐antitrypsin” (EMBO Molecular Medicine, 2021).

One series is described as follows: Solubility in FaSSIF. It counts as physicochemical. The note with it: amorphous, read-out: solubility of amorphous drug substance in FaSSIF.
A further series deals with Vasopressin V1a (Homo sapiens, UniProt P37288). The series can be described thus: Off‐target panel: Vasopressin V1a. It counts as cell-based. To be noted: Antagonist, read-out: Mean (PXC50) (converted). The protocol:
(§1) GSK716 selectivity and PK properties were profiled in order to investigate the suitability of GSK716 for progression into in vivo studies and the potential for taking it forward as a clinical candidate for testing in humans. Since GSK716 results in loss of inhibitory activity of α1‐antitrypsin, the effect of the compound was assessed on other closely related serpins. […] Furthermore, there were no off‐target effects in a panel of assays considered predictive of known safety liabilities that precluded further development of GSK716 (Table EV1).

Another series addresses T1, Muscarinic M2 (Homo sapiens, UniProt P08172).
T1 sequence (P08172 1-466): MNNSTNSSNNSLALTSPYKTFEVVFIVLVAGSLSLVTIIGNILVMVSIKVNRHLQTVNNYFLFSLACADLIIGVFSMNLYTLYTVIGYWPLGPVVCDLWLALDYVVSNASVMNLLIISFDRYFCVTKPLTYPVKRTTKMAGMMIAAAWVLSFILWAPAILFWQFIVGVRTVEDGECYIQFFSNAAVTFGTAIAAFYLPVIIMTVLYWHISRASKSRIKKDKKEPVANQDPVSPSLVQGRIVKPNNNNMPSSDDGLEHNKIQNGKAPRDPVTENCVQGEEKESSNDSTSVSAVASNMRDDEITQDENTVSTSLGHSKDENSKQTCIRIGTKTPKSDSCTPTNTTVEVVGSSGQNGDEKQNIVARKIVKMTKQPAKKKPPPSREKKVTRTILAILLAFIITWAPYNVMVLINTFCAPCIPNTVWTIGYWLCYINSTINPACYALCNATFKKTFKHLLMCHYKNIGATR
The series can be described thus: Off‐target panel: Muscarinic M2. It counts as cell-based. On the procedure:
as §1

The target of another series is T2, M α1‐antitrypsin (Homo sapiens, UniProt P01009).
T2 construct: purified from the plasma of M (wild‐type) and Z α1‐antitrypsin homozygotes; from tissue; host or cells: human plasma of M (wild-type) homozygotes
The experiment in a line: Stoichiometry of inhibition against chymotrypsin, M α1‐antitrypsin. To be noted: M α1‐antitrypsin pre‐incubated with GSK716 (50µM), read-out: loss of protease inhibitory activity. It counts as biochemical. The protocol: Mutations that interfere with the opening of β‐sheet A or that perturb its interaction with the N‐terminal portion of the reactive centre loop alter the ability of serpins to inhibit target proteases (Hood et al, 1994; Irving et al, 2014). The stoichiometry of inhibition (SI) was determined for M α1‐antitrypsin and Z α1‐antitrypsin in discontinuous experiments against a model target protease, chymotrypsin. The pre‐incubation of both variants with GSK716 led to a > 98% loss of protease inhibitory activity (Fig 5A).
Figure 5 The effect of GSK716 on serpin inhibitory activity • α1‐Antitrypsin was incubated at varying molar ratios with the model protease bovine α‐chymotrypsin, and the residual protease activity determined. […] The position of covalent α1‐antitrypsin‐chymotrypsin complex (cpx), native (nat) and cleaved (clv) is shown. • The inhibitory activity of α1‐antichymotrypsin against chymotrypsin (ach + chym), neuroserpin against trypsin (neus + tryp), and antithrombin against thrombin (atiii + thrombin) was determined in the presence and absence of GSK716. […]
The native state stability of α1‐antitrypsin on addition of compounds was investigated by thermal denaturation in the presence of a 5X concentration of SYPRO Orange dye solution (Life Technologies) (Nettleship et al, 2008). Resistance to heat‐induced polymerisation was determined using an end‐point constant‐temperature assay. […]

In brackets after ≈: the same amount, converted by molar mass.

Chain of Vasopressin V1a (P37288 whole entry): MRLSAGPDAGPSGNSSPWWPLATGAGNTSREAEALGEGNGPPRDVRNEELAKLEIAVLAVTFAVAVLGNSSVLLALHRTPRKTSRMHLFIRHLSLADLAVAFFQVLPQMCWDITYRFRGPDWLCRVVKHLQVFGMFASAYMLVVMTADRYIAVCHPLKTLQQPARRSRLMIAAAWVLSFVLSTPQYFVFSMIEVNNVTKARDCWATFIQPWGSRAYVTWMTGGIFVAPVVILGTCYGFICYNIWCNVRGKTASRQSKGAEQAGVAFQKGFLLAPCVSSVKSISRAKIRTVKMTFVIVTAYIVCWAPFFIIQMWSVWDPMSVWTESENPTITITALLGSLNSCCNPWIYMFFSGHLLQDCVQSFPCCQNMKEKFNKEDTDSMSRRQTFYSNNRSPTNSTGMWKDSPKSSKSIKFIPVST
T2 sequence (P01009 25-418): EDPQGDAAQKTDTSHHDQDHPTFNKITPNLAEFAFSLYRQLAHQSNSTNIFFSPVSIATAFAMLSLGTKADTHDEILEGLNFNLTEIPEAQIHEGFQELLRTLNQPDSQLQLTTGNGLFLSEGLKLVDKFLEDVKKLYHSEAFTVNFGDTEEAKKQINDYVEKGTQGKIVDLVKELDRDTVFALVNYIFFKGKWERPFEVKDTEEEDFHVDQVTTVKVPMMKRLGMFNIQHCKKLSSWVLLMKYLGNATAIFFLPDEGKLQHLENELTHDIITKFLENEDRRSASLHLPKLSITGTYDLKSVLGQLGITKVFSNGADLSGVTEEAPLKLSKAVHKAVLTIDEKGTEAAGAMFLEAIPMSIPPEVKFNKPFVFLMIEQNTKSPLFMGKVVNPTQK

`CCC[C@@H](NC(=O)c1cccc2c1CC(=O)N2)[C@@H](O)c1cccc(F)c1C` [GSK716]: in “Solubility in FaSSIF”, the solubility is 969 µg/mL (≈ 2620 µM). Moreover, the IC50 at Vasopressin V1a was 39.8 µM. Moreover, on Muscarinic M2, the EC50 is > 50.1 µM and the IC50 is > 50.1 µM. Also, the inhibition at 50 µM on M α1‐antitrypsin was > 98%.

In general, solubility refers to the concentration that dissolves in the medium under given conditions. In general, EC50 refers to the concentration giving half of the maximal effect.
